Assay results published in paper PMC11855827, “High-Throughput Screening of Five Compound Libraries for Anthelmintic Activity and Toxicity Leads to the Discovery of Two Flavonoid Compounds” (International Journal of Molecular Sciences, 2025).
Like-named read-outs stand apart in the source and are kept apart here. *1 amine or outer side, *2 acyl side, *3 side chain or, on linkers, in order; H or OH if unused. Where a SMILES comes first, the peptide text is derived from it. Bridges are numbered along the chain shown (N, C = ends). [ ]: non-standard residue; d: D form. The star is where a group is joined. pTerphenylCO(4''-OnC5H11) = CCCCCOc1ccc(-c2ccc(-c3ccc(C(=O)*)cc3)cc2)cc1; Orn(4R-OH,5R-OH) = O=C([C@H](C[C@@H](O)[C@@H](O)N[*:3])N[*:1])[*:2]; hTyr(3S-OH,4S-OH) = N[C@H](C(=O)O)[C@H](O)[C@@H](O)c1ccc(O)cc1; Pro(3S-OH,4S-Me) = C[C@H]1CN[C@H](C(=O)O)[C@H]1O; Hyp = O=C(O)[C@@H]1C[C@@H](O)CN1

Tested on: C. elegans
Test: microbe, parasite or virus in culture
Details: Caenorhabditis elegans
[1] = 0 h, read-out: Percentage of motility inhibition 0 h, Table S2, C. elegans SS assay, 110 μM, 0 h, averages of 4 data points
[2] = 24 h, read-out: Percentage of motility inhibition 24 h, Table S2, C. elegans SS assay, 110 μM, 24 h, averages of 4 data points
[3] = 0 h, read-out: Percentage of motility inhibition 0 h
[4] = 24 h, read-out: Percentage of motility inhibition 24 h

Row | SMILES | inhibition at 110 µM [1] [%] | inhibition at 110 µM [2] [%] | inhibition at 110 µM [3] [%] | inhibition at 110 µM [4] [%]
1 | O=C(O)[C@H]1C2CCC(CC2)[C@@H]1Nc1nc(-c2c[nH]c3ncc(F)cc23)ncc1F [Pimodivir] | 7 | 9 | – | –
2 | Cc1cc(NS(=O)(=O)c2ccc(N)cc2)no1 [Sulfamethoxazole] | 30 | 11 | – | –
3 | O=c1c2ccccc2[se]n1-c1ccccc1 [Ebselen] | 13 | 12 | – | –
4 | CC[C@H]1OC(=O)[C@H](C)[C@@H](O[C@H]2C[C@@](C)(OC)[C@@H](O)[C@H](C)O2)[C@H](C)[C@@H](O[C@@H]2O[C@H](C)C[C@H](N(C)C)[C@H]2O)[C@](C)(OC)C[C@@H](C)C(=O)[C@H](C)[C@@H](O)[C@]1(C)O [Clarithromycin] | 12 | 10 | – | –
5 | COc1ccc(-c2coc3cc(O)ccc3c2=O)cc1O [Calycosin] | – | – | 16 | 1
6 | CCOC(=O)c1ccc(O)cc1 [Ethylparaben] | 32 | 8 | – | –
7 | CC(C)=CCC[C@@H](C)CC=O [(R)-(+)-Citronellal] | 0 | 8 | – | –
8 | Oc1cc(Cl)ccc1Oc1ccc(Cl)cc1Cl [Triclosan] | 45 | 60 | – | –
9 | O=C(/C=C/c1ccccc1)OC[C@H]1O[C@@H](O[C@@H]2OC=C[C@H]3[C@H](O)[C@@H]4O[C@]4(CO)[C@@H]23)[C@H](O)[C@@H](O)[C@@H]1O [Picroside I] | 6 | 17 | – | –
10 | COc1c(O)cc2c(c1O)[C@@H]1O[C@H](CO)[C@@H](O)[C@H](O)[C@H]1OC2=O [Bergenin] | 21 | 10 | – | –
11 | C[n+]1cccc(C(=O)[O-])c1 [Trigonelline] | 0 | 0 | – | –
12 | C=C(CC[C@@H](C(=O)O)[C@H]1CC[C@@]2(C)C3=C(CC[C@]12C)[C@@]1(C)CC[C@H](O)C(C)(C)[C@@H]1CC3)C(C)C [Eburicoic acid] | 27 | 56 | – | –
13 | COc1cc(-c2cc(=O)c3c(O)cc(O)cc3o2)ccc1O [Chrysoeriol] | 18 | 1 | – | –
14 | CC(C)=CCC[C@](C)(O[C@@H]1O[C@H](CO[C@@H]2O[C@@H](CO)[C@H](O)[C@H]2O)[C@@H](O)[C@H](O)[C@H]1O)[C@H]1CC[C@]2(C)[C@@H]1[C@H](O)C[C@@H]1[C@@]3(C)CC[C@H](O[C@@H]4O[C@H](CO)[C@@H](O)[C@H](O)[C@H]4O[C@@H]4O[C@H](CO)[C@@H](O)[C@H](O)[C@H]4O)C(C)(C)[C@@H]3CC[C@]12C [Ginsenoside Rc] | 0 | 0 | – | –
15 | COc1ccc2cc1Oc1ccc(cc1)C[C@H]1c3cc(c(OC)cc3CCN1C)Oc1c(O)c(OC)cc3c1[C@H](C2)N(C)CC3 [Fangchinoline] | 0 | 0 | – | –
16 | C=C1C(=O)O[C@@H]2C[C@@]3(C)CCCC(=C)[C@@H]3C[C@H]12 [Isoalantolactone] | 2 | 12 | – | –
17 | CCCCCOc1ccc(-c2ccc(-c3ccc(C(=O)N[C@H]4C[C@@H](O)[C@@H](O)NC(=O)[C@@H]5[C@@H](O)[C@@H](C)CN5C(=O)[C@H]([C@@H](C)O)NC(=O)[C@H]([C@H](O)[C@@H](O)c5ccc(O)cc5)NC(=O)[C@@H]5C[C@@H](O)CN5C(=O)[C@H]([C@@H](C)O)NC4=O)cc3)cc2)cc1 [Anidulafungin] ({pTerphenylCO(4''-OnC5H11)}-[Orn(4R-OH,5R-OH)]T[Hyp][hTyr(3S-OH,4S-OH)]T[Pro(3S-OH,4S-Me)]; lactam 1-C) | 54 | 61 | – | –
18 | O=C(C[C@H]1NCCC[C@@H]1O)Cn1cnc2ccccc2c1=O [Febrifugine] | 0 | 0 | – | –
19 | CC(=O)O[C@@H]1[C@H]2[C@H]3C[C@H]4C5=Nc6ccccc6[C@]51C[C@@H]2N4[C@H](C)C3C=O (stereo partly shown) [Perakine] | 0 | 0 | – | –
20 | C=CC(=C)CCC=C(C)C [Myrcene] | 8 | 23 | – | –
21 | Cc1noc(NS(=O)(=O)c2ccc(N)cc2)c1C [Sulfisoxazole] | 9 | 7 | – | –
22 | CC(C)CN(C[C@@H](O)[C@H](Cc1ccccc1)NC(=O)O[C@H]1CCOC1)S(=O)(=O)c1ccc(N)cc1 [Amprenavir] | 41 | 34 | – | –
23 | O=C1C[C@@H](c2ccc(O)cc2)Oc2cc(O[C@@H]3O[C@H](CO)[C@@H](O)[C@H](O)[C@H]3O)cc(O)c21 [Prunin] | 13 | 2 | – | –
24 | O=C1C=CC[C@@H]2[C@H]3CCC[N+]4([O-])CCC[C@@H](CN12)[C@@H]34 (stereo partly shown) [Oxysophocarpine] | 34 | 0 | – | –
25 | Nc1nc(O)c2ncn(COC(CO)CO)c2n1 [Ganciclovir] | 22 | 5 | – | –
26 | CC(C)(O)/C=C/C(=O)[C@](C)(O)[C@H]1[C@H](O)C[C@@]2(C)[C@@H]3CC=C4[C@@H](C=C(O)C(=O)C4(C)C)[C@]3(C)C(=O)C[C@]12C [Cucurbitacin I] | 0 | 23 | – | –
27 | CC(C)(C)C(O)(CCc1ccc(Cl)cc1)Cn1cncn1 (stereo not shown) [Tebuconazole] | 32 | 1 | – | –

Row | SMILES | inhibition at 110 µM [1] [%] | inhibition at 110 µM [2] [%] | inhibition at 110 µM [3] [%] | inhibition at 110 µM [4] [%]
28 | CC1=CC(=O)[C@@H](O)[C@]2(C)[C@H]3[C@@H](O)[C@H](O)[C@]4(CO)OC[C@@]35[C@@H](C[C@@H]12)OC(=O)[C@H](O)[C@]54O [Yadanziolide A] | 0 | 36 | – | –
29 | COc1cc2cc(c1Cl)N(C)C(=O)CC(O)C1(C)OC1C(C)C1CC(O)(NC(=O)O1)C(OC)/C=C/C=C(\C)C2 (stereo not shown) [Maytansinol] | 0 | 0 | – | –
30 | CCN1CCN(C(=O)N[C@@H](C(=O)N[C@@H]2C(=O)N3C(C(=O)O)=C(CSc4nnnn4C)CS[C@H]23)c2ccc(O)cc2)C(=O)C1=O [Cefoperazone] | 22 | 7 | – | –
31 | [H]/N=C(\N/C(=N/[H])Nc1ccc(Cl)cc1)NC(C)C [Proguanil] | 36 | 6 | – | –
32 | CC(=O)O[C@@H]1C[C@H]2C(C)(C)C(=O)C=C[C@]2(C)[C@H]2CC[C@@]3(C)[C@H](c4ccoc4)C(=O)[C@H]4O[C@]43[C@@]21C [Epoxyazadiradione] | 19 | 47 | – | –
33 | CC(C)(C)NCC(O)c1cc(O)cc(O)c1 (stereo not shown) [Terbutaline] | 9 | 2 | – | –
34 | C[C@@H](c1nc(-c2ccc(C#N)cc2)cs1)[C@](O)(Cn1cncn1)c1cc(F)ccc1F [Isavuconazole] | 25 | 0 | – | –
35 | CC(C)(C)NC(=O)[C@@H]1C[C@@H]2CCCC[C@@H]2CN1C[C@@H](O)[C@H](Cc1ccccc1)NC(=O)[C@H](CC(N)=O)NC(=O)c1ccc2ccccc2n1 [Saquinavir] | 37 | 0 | – | –
36 | CCc1cc(C(N)=S)ccn1 [Ethionamide] | 64 | 12 | – | –
37 | C[C@@]12CC[C@@H]3[C@@](CC[C@H]4[C@@]3(C)CCC[C@@]4(C)C(=O)O)(CC1=O)C2 [Isosteviol] | 0 | 2 | – | –
38 | Cc1cccc(C)c1NC(=O)c1ccccc1C(=O)O [Ftaxilide] | 18 | 10 | – | –
39 | C=C(C)[C@@H]1CC[C@]2(CO)CC[C@]3(C)[C@H](CC[C@@H]4[C@@]5(C)CC[C@H](O)C(C)(C)[C@@H]5CC[C@]43C)[C@@H]12 [Betulin] | 0 | 0 | – | –
40 | CC(C)=CCc1c(O)ccc(C(=O)/C=C/c2ccc(O)cc2)c1O [Isobavachalcone] | 6 | 15 | – | –
41 | Oc1cc(O)c2c(c1)O[C@H](c1ccc(O)c(O)c1)[C@H](O)[C@H]2c1c(O)cc(O)c2c1O[C@H](c1ccc(O)c(O)c1)[C@H](O)[C@H]2c1c(O)cc(O)c2c1O[C@H](c1ccc(O)c(O)c1)[C@H](O)C2 [Procyanidin C1] | 2 | 29 | – | –
42 | C/C(=C\C(=O)OCCCCCCCCC(=O)O)C[C@@H]1OC[C@H](C[C@@H]2O[C@H]2[C@@H](C)[C@H](C)O)[C@@H](O)[C@H]1O [Mupirocin] | 10 | 11 | – | –
43 | Cc1cc(-n2c(=O)[nH]c(=O)n(C)c2=O)ccc1Oc1ccc(SC(F)(F)F)cc1 [Toltrazuril] | 31 | 2 | – | –
44 | COC(=O)N/N=C/c1c[n+]([O-])c2ccccc2[n+]1[O-] [Carbadox] | 4 | 0 | – | –
45 | COc1cc(-c2cc(=O)c3c(O)cc(O)cc3o2)cc(OC)c1O [Tricin] | 31 | 2 | – | –
46 | C=CC(C)(O)CCC=C(C)CCC=C(C)C (mixture of isomers) [Nerolidol] | 7 | 7 | – | –
47 | Nc1[nH]c(=O)ncc1F [Flucytosine] | 23 | 32 | – | –
48 | COc1cc(-c2coc3cc(O)c(OC)c(O)c3c2=O)cc(O)c1OC [Irigenin] | 14 | 3 | – | –
49 | CC(C)=CCC/C(C)=C/CO [Geraniol] | 0 | 3 | – | –
50 | CC1=C[C@H](O)CC(C)(C)[C@H]1/C=C/C(C)=C/C=C/C(C)=C/C=C/C=C(C)/C=C/C=C(C)/C=C/C1=C(C)C[C@@H](O)CC1(C)C [Lutein] | – | – | 13 | 0
51 | CO[C@H]1/C=C/O[C@@]2(C)Oc3c(C)c(O)c4c(O)c(c(/C=N/N5CCN(C)CC5)c(O)c4c3C2=O)NC(=O)/C(C)=C\C=C\[C@H](C)[C@H](O)[C@@H](C)[C@@H](O)[C@@H](C)[C@H](OC(C)=O)[C@@H]1C [Rifampicin] | 13 | 4 | – | –
52 | Cc1ncc([N+](=O)[O-])n1CC(C)O (stereo not shown) [Secnidazole] | – | – | 26 | 3
53 | O=C1Nc2ccccc2C1=O [Isatin] | 25 | 3 | – | –
